This passage reports Emax and EC50 results from US12139498B1, “Positive allosteric modulators of the muscarinic acetylcholine receptor M4” (Vanderbilt University, priority 2023, dated 2024).

Where only a bound is given, the exact number is not on record here.

The assay concerns the target T1, Human M4 (Homo sapiens, UniProt P08173).
T1 sequence (P08173 1-479): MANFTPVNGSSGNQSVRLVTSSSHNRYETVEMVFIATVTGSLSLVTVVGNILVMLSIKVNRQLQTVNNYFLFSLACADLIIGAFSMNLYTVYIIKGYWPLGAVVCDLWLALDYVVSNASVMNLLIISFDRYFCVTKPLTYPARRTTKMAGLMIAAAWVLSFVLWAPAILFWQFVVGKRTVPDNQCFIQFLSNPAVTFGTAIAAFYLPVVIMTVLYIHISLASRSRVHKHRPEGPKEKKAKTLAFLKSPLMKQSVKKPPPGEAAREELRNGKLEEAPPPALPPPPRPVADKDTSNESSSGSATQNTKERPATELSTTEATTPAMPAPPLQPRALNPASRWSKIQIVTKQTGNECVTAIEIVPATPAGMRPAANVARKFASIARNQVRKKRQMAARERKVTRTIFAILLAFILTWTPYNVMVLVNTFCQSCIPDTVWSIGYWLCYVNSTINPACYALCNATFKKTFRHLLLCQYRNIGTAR
In words: M4 cell-based functional assay (calcium mobilization). The arrangement: expressed in transfected cells. The note with it: for Emax at 30 µM: % ACh maximum at 30 μM; for EC50: CHO-K1 hM4-Gqi5 cells, calcium flux, increase in EC20 acetylcholine response. How it is done: Human (h) and rat (r) M4 CDNAs, along with the chimeric G protein Gqi5, were transfected into Chinese hamster ovary (CHO-K1) cells purchased from the American Type Culture Collection using Lipofectamine2000. The transfected cells were subjected to selection antibiotic treatment to generate stable cell lines; G418 sulfate (1 mg/ml) for selecting M4 expressing cells and Hygromycin B (500 μg/mL) for selecting Gqi5 expressing cells. The resulting polyclones were further screened to obtain monoclones of hM4-Gqi5 and rM4-Gqi5 for compound screening assay. Stable monoclone cells were maintained in Ham's F-12 medium containing 10% heat-inactivated fetal bovine serum (FBS), 1× Antibiotic/Antimycotic, 20 mM HEPES, 500 μg/mL G418 sulfate, and 200 μg/mL Hygromycin B in 37° C. humidified incubators in the presence of 5% CO2.
The high throughput assay was employed to measure receptor-induced mobilization of intracellular calcium to determine compound activity. Test compound was added to cells expressing the muscarinic receptors that were loaded with calcium sensitive fluorescent dye. After a ˜2.5 minute incubation period, a submaximal (EC20) concentration of acetylcholine was added, and the response measured. This kinetic assay allows for simultaneous screening and potency determination of multiple pharmacological modes of action including agonist and potentiator activity. CHO-K1 cells stably expressing muscarinic receptors were plated in growth medium lacking G418 and hygromycin at 15,000 cells/20 μL/well in Greiner 384-well black-walled, tissue culture (TC)-treated, clear-bottom plates (Greiner Bio-One). Cells were incubated overnight at 37° C. and 5% CO2. The next day, calcium assay buffer (Hank's balanced salt solution (HBSS), 20 mM HEPES, 2.5 mM Probenecid, 4.16 mM sodium bicarbonate (Sigma-Aldrich, St. Louis, MO)) was prepared to dilute compounds, agonists, and Fluo-4-acetomethoxyester (Fluo-4-AM), fluorescent calcium indicator dye. Compounds were serially diluted 1:3 into 10 point concentration response curves in DMSO using the Bravo Liquid Handler (Agilent, Santa Clara, CA), transferred to a 384 well daughter plates using an Echo acoustic liquid handler (Beckman Coulter, Indianapolis, Indiana), and diluted in assay Buffer to a 2× final concentration. The agonist plates were prepared using acetylcholine (ACh, Sigma-Aldrich, St. Louis, MO) concentrations for the EC20 and ECMAX responses by diluting in assay buffer to a 5× final concentration. The 2× dye solution (2.3 μM) was prepared by mixing a 2.3 mM Fluo-4-AM stock in DMSO with 10% (w/v) pluronic acid F-127 in a 1:1 ratio in assay buffer. Using a microplate washer (BioTek, Winooski, VT), cells were washed with assay buffer for 3 times to remove medium. After the final wash, 20 μL of assay buffer remained in the cell plates. Immediately, 20 μL of the 2× dye solution (final 1.15 μM) was added to each well of the cell plate using a Multidrop Combi dispenser (Thermo Fisher, Waltham, MA). After cells were incubated with the dye solutions for 45 min at 37° C. in the presence of 5% CO2, the dye solutions were removed and replaced with assay buffer using a microplate washer, leaving 20 μL of assay buffer in the cell plate.
The prepared compound, agonist, and cell plates were placed inside the Functional Drug Screening System uCell (FDSS uCell, Hamamatsu, Japan) to measure the calcium flux.
The triple add protocol was used to measure Ca kinetics; Compound, ACh for EC2O, and ACh for EC80 adds in an order. Briefly, after establishment of a fluorescence baseline for 2 seconds (excitation, 480 nm; emission, 530 nm), first add occurred by adding 20 μL of test compound to the cells, and the response was measured for 140 seconds. This is followed by second add; 10 μL (5×) of an EC20 concentration of ACh agonist was added to the cells, and the response of the cells was measured for 125 seconds. […]
(Calcium assays in cells follow changes in intracellular calcium, usually with a dye or a luminescent sensor.)

On to `CCOC(=O)c1cc(=O)n2nc(N3CCc4nc(Br)sc4C3)c(C)cc2n1` [Compound 52, ethyl 7-(2-bromo-6,7-dihydrothiazolo[5,4-c]pyridin-5(4H)-yl)-8-methyl-4-oxo-4H-pyrimido[1,2-b]pyridazine-2-carboxylate], for which the Emax (in general, the greatest response seen or fitted, relative to the assay's reference) at 30 µM was found to be 92% and the concentration giving a half-maximal response (EC50) (commonly the concentration needed to bring the measured effect to its halfway point) stood at 868 nM.
For `Cc1cc2nc(=O)ccn2nc1N1CCc2nc(Br)sc2C1` [Compound 50, 7-(2-bromo-6,7-dihydrothiazolo[5,4-c]pyridin-5(4H)-yl)-8-methyl-2H-pyrimido[1,2-b]pyridazin-2-one], in that order: 66% and 521 nM.
Regarding `Cc1cc2nc(=O)cc(C)n2nc1N1CCc2nc(Br)sc2C1` [Compound 51, 7-(2-bromo-6,7-dihydrothiazolo[5,4-c]pyridin-5(4H)-yl)-4,8-dimethyl-2H-pyrimido[1,2-b]pyridazin-2-one], the Emax at 30 µM was 71% and the EC50 worked out at 378 nM.
Take `Cc1csc2ncnc(N3CCc4nc(Br)sc4C3)c12` [Compound 23, 2-bromo-5-(5-methylthieno[2,3-d]pyrimidin-4-yl)-4,5,6,7-tetrahydrothiazolo[5,4-c]pyridine]: the maximal response (Emax) at 30 µM worked out at 82% and the EC50 stood at 204 nM.
For the compound `Cc1cc2nccnc2nc1N1CCc2nc(C(C)C)sc2C1` [Compound 64, 2-isopropyl-5-(7-methylpyrido[2,3-b]pyrazin-6-yl)-4,5,6,7-tetrahydrothiazolo[5,4-c]pyridine], the maximal response (Emax) at 30 µM was 76% and the EC50 turned out to be 119 nM.
As to `Cc1cc2nccnc2nc1N1CCc2nc(C(F)(F)F)sc2C1` [Compound 62, 5-(7-methylpyrido[2,3-b]pyrazin-6-yl)-2-(trifluoromethyl)-4,5,6,7-tetrahydrothiazolo[5,4-c]pyridine], the maximal effect (Emax) at 30 µM amounted to 72% and the concentration giving a half-maximal response (EC50) worked out at 93 nM.
With `Clc1ccc2ncnc(N3CCc4nc(Br)sc4C3)c2c1` [Compound 29, 2-bromo-5-(6-chloroquinazolin-4-yl)-4,5,6,7-tetrahydrothiazolo[5,4-c]pyridine], the Emax at 30 µM worked out at 96% and the EC50 worked out at 144 nM.
Take `Cc1cc2nc(C(=O)NC3(C#N)CC3)cc(=O)n2nc1N1CCc2nc(Br)sc2C1` [Compound 46, 7-(2-bromo-6,7-dihydrothiazolo[5,4-c]pyridin-5(4H)-yl)-N-(1-cyanocyclopropyl)-8-methyl-4-oxo-4H-pyrimido[1,2-b]pyridazine-2-carboxamide]: the maximum response (Emax) at 30 µM turned out to be 91% and the concentration giving a half-maximal response (EC50) worked out at 360 nM.
Regarding `Cc1cc(C#N)cnc1N1CCc2nc(C(N)=O)sc2C1` [Compound 21, 5-(5-cyano-3-methylpyridin-2-yl)-4,5,6,7-tetrahydrothiazolo[5,4-c]pyridine-2-carboxamide], the maximum response (Emax) at 30 µM stood at 98% and the concentration giving a half-maximal response (EC50) was determined as 301 nM.
Take `Brc1nc2c(s1)CN(c1ncnc3ccsc13)CC2` [Compound 26, 2-bromo-5-(thieno[3,2-d]pyrimidin-4-yl)-4,5,6,7-tetrahydrothiazolo[5,4-c]pyridine]: the maximal response (Emax) at 30 µM was 98% and the EC50 stood at 430 nM.
In the case of `Cc1cc2nc(C(F)(F)F)cc(=O)n2nc1N1CCc2nc(Br)sc2C1` [Compound 36, 7-(2-bromo-6,7-dihydrothiazolo[5,4-c]pyridin-5(4H)-yl)-8-methyl-2-(trifluoromethyl)-4H-pyrimido[1,2-b]pyridazin-4-one], the maximal effect (Emax) at 30 µM stood at 91% and the EC50 is 37 nM.
For `Cc1ccc2ncnc(N3CCc4nc(Br)sc4C3)c2c1` [Compound 30, 2-bromo-5-(6-methylquinazolin-4-yl)-4,5,6,7-tetrahydrothiazolo[5,4-c]pyridine], the maximal effect (Emax) at 30 µM came to 91% and the EC50 was determined as 147 nM.
Take `COC1CN(C(=O)c2cc(=O)n3nc(N4CCc5nc(Br)sc5C4)c(C)cc3n2)C1` [Compound 44, 7-(2-bromo-6,7-dihydrothiazolo[5,4-c]pyridin-5(4H)-yl)-2-(3-methoxyazetidine-1-carbonyl)-8-methyl-4H-pyrimido[1,2-b]pyridazin-4-one]: the maximal effect (Emax) at 30 µM was 93% and the EC50 came out at 2390 nM.
For `Cc1cc2nc(C(=O)N3CC(C)C3)cc(=O)n2nc1N1CCc2nc(Br)sc2C1` [Compound 43, 7-(2-bromo-6,7-dihydrothiazolo[5,4-c]pyridin-5(4H)-yl)-8-methyl-2-(3-methylazetidine-1-carbonyl)-4H-pyrimido[1,2-b]pyridazin-4-one], the Emax at 30 µM is 87% and the EC50 was 1960 nM.
With `Cc1cc2nccnc2nc1N1CCc2nc(-c3cccs3)sc2C1` [Compound 56, 5-(7-methylpyrido[2,3-b]pyrazin-6-yl)-2-(thiophen-2-yl)-4,5,6,7-tetrahydrothiazolo[5,4-c]pyridine], the Emax at 30 µM was determined as 50% and the EC50 was found to be 2390 nM.
`Cc1cc2nccnc2nc1N1CCc2nc(N)sc2C1` [Compound 60, 5-(7-methylpyrido[2,3-b]pyrazin-6-yl)-4,5,6,7-tetrahydrothiazolo[5,4-c]pyridin-2-amine]: the maximal response (Emax) at 30 µM was determined as 67% and the EC50 was greater than 10000 nM.
On to `Cc1cn2c(=O)n(C)nc2nc1N1CCc2nc(C3CCC3)sc2C1` [Compound 67, 7-(2-cyclobutyl-6,7-dihydrothiazolo[5,4-c]pyridin-5(4H)-yl)-2,6-dimethyl-[1,2,4]triazolo[4,3-a]pyrimidin-3(2H)-one], for which the Emax at 30 µM was determined as 71% and the half-maximal effective concentration (EC50) is 4 nM.
With `Cc1c(C#N)nnc(N2CCc3nc(Nc4ccccc4F)sc3C2)c1C` [Compound 5, 6-(2-((2-fluorophenyl)amino)-6,7-dihydrothiazolo[5,4-c]pyridin-5(4H)-yl)-4,5-dimethylpyridazine-3-carbonitrile], the Emax at 30 µM was 43% and the concentration for a half-maximal effect (EC50) was greater than 10000 nM.
For `Cc1c(N2CCc3nc(C4CC4)sc3C2)nc2nn(C)c(=O)n2c1C` [Compound 77, 7-(2-cyclopropyl-6,7-dihydrothiazolo[5,4-c]pyridin-5(4H)-yl)-2,5,6-trimethyl-[1,2,4]triazolo[4,3-a]pyrimidin-3(2H)-one], in that order: 121% and 9 nM.
For `Cc1cc2nc(C(=O)NC3CC(CC(F)(F)F)C3)cc(=O)n2nc1N1CCc2nc(Br)sc2C1` (stereo not drawn) [Compound 48, 7-(2-bromo-6,7-dihydrothiazolo[5,4-c]pyridin-5(4H)-yl)-8-methyl-4-oxo-N-(3-(2,2,2-trifluoroethyl)cyclobutyl)-4H-pyrimido[1,2-b]pyridazine-2-carboxamide], the Emax at 30 µM is 87% and the EC50 was determined as 2180 nM.
For `Cc1c(N2CCc3nc(C4CC4)sc3C2)nc2nn(CC3CC3)c(=O)n2c1C` [Compound 75, 7-(2-cyclopropyl-6,7-dihydrothiazolo[5,4-c]pyridin-5(4H)-yl)-2-(cyclopropylmethyl)-5,6-dimethyl-[1,2,4]triazolo[4,3-a]pyrimidin-3(2H)-one], the Emax at 30 µM amounted to 111% and the EC50 was determined as 15 nM.
